# From Sander's compilation of Henry's law constants (doi:10.14233/ajchem.2013.13584)
# Values joined by “and” are separate entries in the source; they are usually repeats but may differ in a detail not shown here. Equal values may be shown once.
# Assay: Henry solubility constant Hcp at 298.15 K (mol/(m3 Pa))
# Conditions: reference: Zhang et al. (2013)
row,SMILES,Henry solubility constant Hcp
1,"Cc1ccccc1C [1,2-dimethylbenzene]",0.0027 and 0.0022
2,c1ccccc1 [benzene],0.0027 and 0.0035
3,CCc1ccccc1 [ethylbenzene],0.0019 and 0.0014
4,Cc1ccccc1 [methylbenzene],0.0028
5,O=[N+]([O-])c1ccccc1 [nitrobenzene],0.14
6,ClC=C(Cl)Cl [trichloroethene],0.0016 and 0.0013
